# In ChEMBL document CHEMBL4118261, “Synthesis, iron binding and antimicrobial properties of hexadentate 3-hydroxypyridinones-terminated dendrimers” (2018):
# Calls of active or inactive are those of the source. No cut-off for these calls is given here.
# Legend:
# [1] = Metal chelating activity assessed as formation of [Fe3L+H+Na]2+-compound complex at 1:3 compound to ferric ion molar ratio by HR-ESI MS analysis
# [2] = Metal chelating activity assessed as formation of [Fe3L+H+2Na]3+-compound complex at 1:3 compound to ferric ion molar ratio by HR-ESI MS analysis
# [3] = Binding affinity to Fe3+ at 1:2 compound to ferric ion molar ratio by HR-ESI MS analysis
# [4] = Binding affinity to Fe3+ at 1:1 compound to ferric ion molar ratio by HR-ESI MS analysis
# [5] = Iron chelating activity assessed as pFe3+ by measuring fluorescence intensity of the iron-CP691 complex at 2 uM after 1 month incubation in absence of light using CP691 as fluorescent probe by fluorescence assay relative to CP691 alone
# Escherichia coli = assay: Antibacterial activity against Escherichia coli CGMCC 1.0907 assessed as growth inhibition at 100 ug/ml after 24 hrs; assay type: functional; conditions: for inhibition of growth at 100 µg/mL: CGMCC 1.0907, 24 h, read-out: GI
# Pseudomonas aeruginosa = assay: Antibacterial activity against Pseudomonas aeruginosa CGMCC 1.2342 assessed as growth inhibition at 100 ug/ml after 24 hrs; assay type: functional; conditions: for inhibition of growth at 100 µg/mL: CGMCC 1.2342, 24 h, read-out: GI
# Staphylococcus aureus = assay: Antibacterial activity against Staphylococcus aureus CGMCC 1.0089 assessed as growth inhibition at 100 ug/ml after 24 hrs; assay type: functional; conditions: for inhibition of growth at 100 µg/mL: CGMCC 1.0089, 24 h, read-out: GI
# Bacillus subtilis = assay: Antibacterial activity against Bacillus subtilis CGMCC 1.0108 assessed as growth inhibition at 100 ug/ml after 24 hrs; assay type: functional; conditions: for inhibition of growth at 100 µg/mL: CGMCC 1.0108, 24 h, read-out: GI
# [6] = Binding affinity to Fe3+ at 1:3 compound to ferric ion molar ratio measured after 4 hrs at pH 8.2 to 8.4 measured at 460 nm by UV/Vis spectrophotometry
# [7] = Binding affinity to Fe3+ at 1:6 compound to ferric ion molar ratio measured after 4 hrs at pH 8.2 to 8.4 measured at 460 nm by UV/Vis spectrophotometry
# [8] = Iron chelating activity assessed as pFe3+ by measuring fluorescence intensity of the iron-CP691 complex at 1 uM after 1 month incubation in absence of light using CP691 as fluorescent probe by fluorescence assay relative to CP691 alone
# [9] = Binding affinity to Fe3+ at 1:6 compound to ferric ion molar ratio by HR-ESI MS analysis
# [10] = Binding affinity to Fe3+ at 1:9 compound to ferric ion molar ratio measured after 4 hrs at pH 8.2 to 8.4 measured at 460 nm by UV/Vis spectrophotometry
# [11] = Iron chelating activity assessed as pFe3+ by measuring fluorescence intensity of the iron-CP691 complex at 0.67 uM after 1 month incubation in absence of light using CP691 as fluorescent probe by fluorescence assay relative to CP691 alone
# [12] = Binding affinity to Fe3+ at 1:9 compound to ferric ion molar ratio by HR-ESI MS analysis
Activity [6],Activity [7],log(activity) [8],Activity [9],SMILES,Activity [1],Activity [2],Activity [3],Activity [4],log(activity) [5],growth inhibition (GI) (Escherichia coli) [%],growth inhibition (GI) (Pseudomonas aeruginosa) [%],growth inhibition (GI) (Staphylococcus aureus) [%],growth inhibition (GI) (Bacillus subtilis) [%],inhibition of growth at 100 µg/mL (Escherichia coli) [%],inhibition of growth at 100 µg/mL (Pseudomonas aeruginosa) [%],inhibition of growth at 100 µg/mL (Staphylococcus aureus) [%],inhibition of growth at 100 µg/mL (Bacillus subtilis) [%],Activity [10],log(activity) [11],Activity [12]
–,–,–,–,O=C(CCC(CCC(=O)NCc1c(O)c(=O)ccn1CCO)(CCC(=O)NCc1c(O)c(=O)ccn1CCO)NC(=O)CCNC(=O)CN(CC(=O)NCCC(=O)NC(CCC(=O)NCc1c(O)c(=O)ccn1CCO)(CCC(=O)NCc1c(O)c(=O)ccn1CCO)CCC(=O)NCc1c(O)c(=O)ccn1CCO)CC(=O)NCCC(=O)NC(CCC(=O)NCc1c(O)c(=O)ccn1CCO)(CCC(=O)NCc1c(O)c(=O)ccn1CCO)CCC(=O)NCc1c(O)c(=O)ccn1CCO)NCc1c(O)c(=O)ccn1CCO,Active,Active,inactive,inactive,30,99.7,85.3,81.7,95,–,–,–,–,–,–,–
Active,–,–,–,CCCCn1ccc(=O)c(O)c1CNC(=O)CCC(CCC(=O)NCc1c(O)c(=O)ccn1CCCC)(CCC(=O)NCc1c(O)c(=O)ccn1CCCC)NC(=O)CCNC(=O)CN(CC(=O)NCCC(=O)NC(CCC(=O)NCc1c(O)c(=O)ccn1CCCC)(CCC(=O)NCc1c(O)c(=O)ccn1CCCC)CCC(=O)NCc1c(O)c(=O)ccn1CCCC)CC(=O)NCCC(=O)NC(CCC(=O)NCc1c(O)c(=O)ccn1CCCC)(CCC(=O)NCc1c(O)c(=O)ccn1CCCC)CCC(=O)NCc1c(O)c(=O)ccn1CCCC,Active,Active,inactive,inactive,30.3,–,–,–,–,71.7,90.4,90,84.8,–,–,–
–,Active,30.3,inactive,CCCCn1ccc(=O)c(CNC(=O)CCC(CCC(=O)NCc2c(O)c(=O)ccn2CCCC)(CCC(=O)NCc2c(O)c(=O)ccn2CCCC)NC(=O)CCNC(=O)CCC(CCC(=O)NCCC(=O)NC(CCC(=O)NCc2c(O)n(CCCC)ccc2=O)(CCC(=O)NCc2c(O)c(=O)ccn2CCCC)CCC(=O)NCc2c(O)c(=O)ccn2CCCC)(CCC(=O)NCCC(=O)NC(CCC(=O)NCc2c(O)n(CCCC)ccc2=O)(CCC(=O)NCc2c(O)c(=O)ccn2CCCC)CCC(=O)NCc2c(O)c(=O)ccn2CCCC)NC(=O)CCNC(=O)CCNC(=O)c2ccc(C(=O)NCCC(=O)NCCC(=O)NC(CCC(=O)NCCC(=O)NC(CCC(=O)NCc3c(O)n(CCCC)ccc3=O)(CCC(=O)NCc3c(O)c(=O)ccn3CCCC)CCC(=O)NCc3c(O)c(=O)ccn3CCCC)(CCC(=O)NCCC(=O)NC(CCC(=O)NCc3c(O)n(CCCC)ccc3=O)(CCC(=O)NCc3c(O)c(=O)ccn3CCCC)CCC(=O)NCc3c(O)c(=O)ccn3CCCC)CCC(=O)NCCC(=O)NC(CCC(=O)NCc3c(O)n(CCCC)ccc3=O)(CCC(=O)NCc3c(O)c(=O)ccn3CCCC)CCC(=O)NCc3c(O)c(=O)ccn3CCCC)cc2)c1O,–,–,–,–,–,–,–,–,–,79.8,87.9,86.9,81.4,–,–,–
–,–,–,–,Cc1c(O)c(=O)ccn1C [DEFERIPRONE],–,–,–,–,–,–,–,–,–,89.1,79.5,74.8,77.4,–,–,–
–,–,–,–,CCCCn1ccc(=O)c(CNC(=O)CCC(CCC(=O)NCc2c(O)c(=O)ccn2CCCC)(CCC(=O)NCc2c(O)c(=O)ccn2CCCC)NC(=O)CCNC(=O)CCC(CCC(=O)NCCC(=O)NC(CCC(=O)NCc2c(O)n(CCCC)ccc2=O)(CCC(=O)NCc2c(O)c(=O)ccn2CCCC)CCC(=O)NCc2c(O)c(=O)ccn2CCCC)(CCC(=O)NCCC(=O)NC(CCC(=O)NCc2c(O)n(CCCC)ccc2=O)(CCC(=O)NCc2c(O)c(=O)ccn2CCCC)CCC(=O)NCc2c(O)c(=O)ccn2CCCC)NC(=O)CCNC(=O)CCNC(=O)c2cc(C(=O)NCCC(=O)NCCC(=O)NC(CCC(=O)NCCC(=O)NC(CCC(=O)NCc3c(O)n(CCCC)ccc3=O)(CCC(=O)NCc3c(O)c(=O)ccn3CCCC)CCC(=O)NCc3c(O)c(=O)ccn3CCCC)(CCC(=O)NCCC(=O)NC(CCC(=O)NCc3c(O)n(CCCC)ccc3=O)(CCC(=O)NCc3c(O)c(=O)ccn3CCCC)CCC(=O)NCc3c(O)c(=O)ccn3CCCC)CCC(=O)NCCC(=O)NC(CCC(=O)NCc3c(O)n(CCCC)ccc3=O)(CCC(=O)NCc3c(O)c(=O)ccn3CCCC)CCC(=O)NCc3c(O)c(=O)ccn3CCCC)cc(C(=O)NCCC(=O)NCCC(=O)NC(CCC(=O)NCCC(=O)NC(CCC(=O)NCc3c(O)n(CCCC)ccc3=O)(CCC(=O)NCc3c(O)c(=O)ccn3CCCC)CCC(=O)NCc3c(O)c(=O)ccn3CCCC)(CCC(=O)NCCC(=O)NC(CCC(=O)NCc3c(O)n(CCCC)ccc3=O)(CCC(=O)NCc3c(O)c(=O)ccn3CCCC)CCC(=O)NCc3c(O)c(=O)ccn3CCCC)CCC(=O)NCCC(=O)NC(CCC(=O)NCc3c(O)n(CCCC)ccc3=O)(CCC(=O)NCc3c(O)c(=O)ccn3CCCC)CCC(=O)NCc3c(O)c(=O)ccn3CCCC)c2)c1O,–,–,–,–,–,81.2,69.9,64.5,64.1,–,–,–,–,Active,29.8,inactive
